The record followed here is patent US20150073050A1 (Amarin Pharmaceuticals Ireland Limited, priority 2013, published 2015).

The data set is described as follows: Safety evaluation in the drug-drug interaction study (adverse events, clinical laboratory, vital signs, physical examination). The format is in vivo, human. Particulars: omeprazole 40 mg with ethyl eicosapentaenoate 4 g/day, healthy subjects. The source says:
Safety evaluations consisted of monitoring adverse events (AEs), clinical laboratory measurements (chemistry, hematology, and urinalysis), vital signs (systolic and diastolic blood pressure, heart rate, respiratory rate and oral body temperature), and physical examination findings.

Turning to `CC/C=C\C/C=C\C/C=C\C/C=C\C/C=C\CCCC(=O)OCC` [ethyl eicosapentaenoate, all-cis eicosa-5,8,11,14,17-pentaenoic acid ethyl ester], the “Premature discontinuation due to an adverse event” value is given as “no subjects prematurely discontinued”; the “Safety and tolerability of concomitant administration” value is “safe and well-tolerated”; the Serious adverse events result is recorded as “No serious adverse events”.
`COc1ccc2[nH]c([S+]([O-])Cc3ncc(C)c(OC)c3C)nc2c1` (stereo not drawn) [Omeprazole, omeprazole]: the “Premature discontinuation due to an adverse event” value is “no subjects prematurely discontinued”; the “Safety and tolerability of concomitant administration” value was “safe and well-tolerated”; the Serious adverse events result was “No serious adverse events”.
